Tests used:
Oryctolagus cuniculus = organism: Oryctolagus cuniculus; assay: Compound was evaluated for vasorelaxant activity determined using potassium-depolarized rabbit thoracic aorta; format: functional
Rattus norvegicus = assay: In vivo antihypertensive activity of compound was determined at 45 umol/kg administered orally in spontaneously hypertensive rats; % reduction in blood pressure; format: functional

IC50 (Oryctolagus cuniculus)	SMILES	Reduction (Rattus norvegicus)
54 nM	CC1=Nc2cc(=O)n(C(=O)c3ccccc3)n2C(c2cccc([N+](=O)[O-])c2)/C1=C(/O)OC(C)C (configuration not stated)	–
318 nM	CC1=Nc2cc(=O)[nH]n2C(c2cccc([N+](=O)[O-])c2)/C1=C(/O)OC(C)C (configuration not stated)	–
23 nM	CCCNC(=O)n1c(=O)cc2n1C(c1cccc([N+](=O)[O-])c1)/C(=C(/O)OC(C)C)C(C)=N2 (configuration not stated)	–
7 nM	CC1=Nc2c(C#N)cnn2C(c2cccc([N+](=O)[O-])c2)/C1=C(/O)OC(C)C (configuration not stated)	–
1160 nM	COC(=O)c1cnn2c1N=C(C)/C(=C(\O)OC(C)C)C2c1cccc([N+](=O)[O-])c1 (configuration not stated)	–
5 nM	CC1=Nc2cc(=O)n(Cc3ccccc3)n2C(c2cccc([N+](=O)[O-])c2)/C1=C(/O)OC(C)C (configuration not stated)	–
> 1000 nM	CC1=Nc2c(C(N)=O)cnn2C(c2cccc([N+](=O)[O-])c2)/C1=C(/O)OC(C)C (configuration not stated)	–
10 nM	CC1=Nc2cc(=O)n(S(=O)(=O)c3ccccc3)n2C(c2cccc([N+](=O)[O-])c2)/C1=C(/O)OC(C)C (configuration not stated)	–

The remaining lines, values behind:

SMILES	IC50 (Oryctolagus cuniculus)	Reduction (Rattus norvegicus)
CCO/C(O)=C1/C(C)=Nc2ccnn2C1c1cccc(Cl)c1Cl (configuration not stated)	21 nM	–
CCO/C(O)=C1/C(C)=Nc2nccn2C1c1cccc(Cl)c1Cl (configuration not stated)	96 nM	–
CCOC(=O)N1C(=S)N=C(C)/C(=C(/O)OCC)C1c1cccc([N+](=O)[O-])c1 (configuration not stated)	3 nM	–
CCOC(=O)C1=C(C)N=C2NCCCN2C1c1cccc(Cl)c1Cl (configuration not stated)	2890 nM	–
CCO/C(O)=C1/C(C)=Nc2c(C#N)cnn2C1c1cccc(Cl)c1Cl (configuration not stated)	1.5 nM	20%
CCO/C(O)=C1/C(C)=Nc2nc(SC)nn2C1c1cccc(Cl)c1Cl (configuration not stated)	620 nM	–
COC(=O)C1=C(C)NC(C)=C(C(=O)OC)C1c1ccccc1[N+](=O)[O-] [NIFEDIPINE]	2.5 nM	33%
